Test [1] deals with trypsinized rabbit erythrocytes. The experiment in a line: Agglutination of trypsinized rabbit erythrocytes. Type of test: cell-based. As to conditions: control, FIG. 5. The text has this:
(§1) Biological activity of the inventive 14 kD lectins 1) isolated from HL-60 cells, 2) isolated from placenta tissue or 3) prepared recombinantly from E. coli cells transfected with lectin cDNA operably linked to a secretion signal was ascertained by agglutination of trypsinized rabbit erythrocytes.

For test [2], the target named is T1, 14 kD lectins (HL-60 cells, placenta, recombinant E. coli) (Homo sapiens, UniProt P09382).
T1 construct: the N-terminal methionine of the HL-60 lectin appears to be cleaved, and the remaining protein can be acetylated; secretion signal (only the E. coli-made preparation); made in house; host or cells: three preparations tested side by side: purified from HL-60 cells, purified from human placenta tissue, recombinant from E. coli (secretion signal)
T1 sequence (P09382 2-135 limits assumed): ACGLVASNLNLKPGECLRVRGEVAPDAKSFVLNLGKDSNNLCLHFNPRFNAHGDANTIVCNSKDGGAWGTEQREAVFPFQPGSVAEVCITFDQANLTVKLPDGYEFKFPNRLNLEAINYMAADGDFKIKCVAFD
The experiment in a line: Inhibition by competing sugars of lectin-induced agglutination of trypsinized rabbit erythrocytes. The format is biochemical. As to conditions: FIG. 5.
Excerpt: as §1

The target in test [3] is epitope recognized by M3 antibody on human blood cells (macrophages) (human). The experiment in a line: flow cytometry of human blood cells pretreated with lectin, then stained with fluoresceinated M3 antibody, against untreated control. In general terms: In flow cytometry, cells or beads pass a laser one at a time.
In test [4] the target is epitope recognized by M1 antibody on human blood cells (macrophages) (human). The experiment in a line: flow cytometry of human blood cells pretreated with lectin, then stained with fluoresceinated M1 antibody, against untreated control.

For Concanavalin A, the agglutination end-point in test [1] was 1.5 µg/mL.
Consider `OC[C@H]1O[C@@H](O[C@H]2[C@H](O)[C@@H](O)[C@H](O)O[C@@H]2CO)[C@H](O)[C@@H](O)[C@H]1O` [β-lactose], for which the “concentrations inhibiting agglutination of the erythrocytes” value in test [2] is reported as “greater than 1.25 mM”.
Turning to “recombinant 14 kD beta-galactoside-binding soluble lectin (HL-60 / placenta lectin) produced in E. coli (from UniProt P09382 2-135)”, the reduction of the percent of positive cells in test [3] came to 26%; in test [4], 33%.
As for `OC[C@H]1O[C@@H](S[C@@H]2O[C@H](CO)[C@H](O)[C@H](O)[C@H]2O)[C@H](O)[C@@H](O)[C@H]1O` [Thiodigalactoside, thiodigalactoside], the “concentrations inhibiting agglutination of the erythrocytes” value in test [2] is recorded as “greater than 0.31 mM”.

Source of the values: patent US6406679B1, “Use of HL-60-related lectins in drug delivery and detection of lectin-expressing cells” (Incyte Pharmaceuticals, Inc., priority 1992, dated 2002).
